PubChem BioAssay AID268 (DTP/NCI, 2004)
Several values for one entry are separate records, joined by “and”; a condition that tells them apart may be missing. Equal entries are not always repeated.

Tested on: CD2F1 mice, P1798 lymphosarcoma sc, tumor weight T/C
Test: NCI In Vivo Anticancer Drug Screen. Data for tumor model P1798 Lymphosarcoma (subcutaneous) in CD2F1 (CDF1) mice
Conditions: endpoint: mean tumor weight, higher = larger tumour
Protocol: The antitumor activity of compounds was measured in mice bearing transplantable tumors. Survival or tumor size were measured and the results are expressed as the measurement made in the treated group (T) divided by the measurement made in the vehicle treated control group (C). The tumor model used in this assay is P1798 Lymphosarcoma (subcutaneous) in CD2F1 (CDF1) mice

[1] = dose: 12.5 mg/kg/injection, schedule: Q01DX010 (ip), vehicle: saline
[2] = dose: 25.0 mg/kg/injection, schedule: Q01DX010 (ip), vehicle: saline
[3] = dose: 100.0 mg/kg/injection, schedule: Q01DX010 (ip), vehicle: saline
[4] = dose: 50.0 mg/kg/injection, schedule: Q01DX010 (ip), vehicle: saline
[5] = dose: 200.0 mg/kg/injection, schedule: Q01DX010 (ip), vehicle: saline
[6] = dose: 400.0 mg/kg/injection, schedule: Q01DX010 (ip), vehicle: saline
[7] = dose: 6.25 mg/kg/injection, schedule: Q01DX010 (ip), vehicle: saline
[8] = dose: 0.63 mg/kg/injection, schedule: Q01DX010 (ip), vehicle: saline
[9] = dose: 1.25 mg/kg/injection, schedule: Q01DX010 (ip), vehicle: saline
[10] = dose: 2.5 mg/kg/injection, schedule: Q01DX010 (ip), vehicle: saline

## c1ccc(CSc2ncnc3nc[nH]c23)cc1
[1]
  T/C: 70 % of control and 82 % of control
[2]
  T/C: 83 % of control and 85 % of control
[3]
  T/C: 13 % of control

## CC(=O)c1ccccc1C
dose: 18.0 mg/kg/injection, schedule: Q01DX010 (ip), vehicle: saline
  T/C: 44 % of control
dose: 27.0 mg/kg/injection, schedule: Q01DX010 (ip), vehicle: saline
  T/C: 42 % of control
dose: 40.0 mg/kg/injection, schedule: Q01DX010 (ip), vehicle: saline
  T/C: 42 % of control

## CN(C)/N=N/c1nc[nH]c1C(N)=O
[4]
  T/C: 58 % of control
[3]
  T/C: 47 % of control
[5]
  T/C: 7 % of control
[6]
  T/C: 3 % of control

## NCCCCC(N)C(=O)NCCCCCCNC(=O)CCCCC(=O)NCCCCCCNC(=O)C(N)CCCCN (stereo unspecified)
[1]
  T/C: 101 % of control
[2]
  T/C: 90 % of control
[4]
  T/C: 94 % of control
[3]
  T/C: 110 % of control

## NCCCCCCNCCCCCCN
[7]
  T/C: 90 % of control
[1]
  T/C: 89 % of control
[2]
  T/C: 100 % of control and 78 % of control
[4]
  T/C: 50 % of control and 70 % of control

## Nc1nc(=S)c2[nH]cnc2[nH]1
[8]
  T/C: 74 % of control
[9]
  T/C: 51 % of control and 72 % of control
[10]
  T/C: 44 % of control

## CN(C)N=Nc1cccc([N+](=O)[O-])c1
dose: 55.0 mg/kg/injection, schedule: Q01DX011 (ip), vehicle: saline
  T/C: 82 % of control
dose: 80.0 mg/kg/injection, schedule: Q01DX011 (ip), vehicle: saline
  T/C: 188 % of control
dose: 120.0 mg/kg/injection, schedule: Q01DX011 (ip), vehicle: saline
  T/C: 89 % of control
dose: 178.0 mg/kg/injection, schedule: Q01DX010 (ip), vehicle: saline
  T/C: 49 % of control
dose: 178.0 mg/kg/injection, schedule: Q01DX011 (ip), vehicle: saline
  T/C: 113 % of control
dose: 267.0 mg/kg/injection, schedule: Q01DX010 (ip), vehicle: saline
  T/C: 74 % of control

## CCN(CC)CCNc1ccc(C)c2sc3ccccc3c(=O)c12
[1]
  T/C: 76 % of control
[2]
  T/C: 31 % of control and 43 % of control
[4]
  T/C: 10 % of control and 29 % of control
[3]
  T/C: 10 % of control

## N=C(N)c1ccc(Nc2ccc(C(=N)N)cc2)cc1
dose: 1.5 mg/kg/injection, schedule: Q01DX010 (ip), vehicle: saline
  T/C: 85 % of control
dose: 3.0 mg/kg/injection, schedule: Q01DX010 (ip), vehicle: saline
  T/C: 82 % of control
dose: 6.0 mg/kg/injection, schedule: Q01DX010 (ip), vehicle: saline
  T/C: 119 % of control
dose: 12.0 mg/kg/injection, schedule: Q01DX010 (ip), vehicle: saline
  T/C: 77 % of control

## CC(=O)OC1C=CC(=O)OC1C1OC1C (stereo unspecified)
dose: 4.0 mg/kg/injection, schedule: Q01DX011 (ip), vehicle: saline
  T/C: 53 % of control
dose: 6.0 mg/kg/injection, schedule: Q01DX011 (ip), vehicle: saline
  T/C: 72 % of control
dose: 9.0 mg/kg/injection, schedule: Q01DX011 (ip), vehicle: saline
  T/C: 62 % of control
dose: 13.0 mg/kg/injection, schedule: Q01DX011 (ip), vehicle: saline
  T/C: 56 % of control

## CS(=O)(=O)OCCCCOS(C)(=O)=O
[7]
  T/C: 103 % of control
[4]
  T/C: 58 % of control and 80 % of control
[3]
  T/C: 52 % of control

## Oc1cc(CN(CCCl)CCCl)c(O)cc1CN(CCCl)CCCl
[8]
  T/C: 71 % of control and 86 % of control
[9]
  T/C: 64 % of control and 88 % of control
[10]
  T/C: 42 % of control and 64 % of control

## CC(=O)NCCCCCCCCCCNC(C)=O
[4]
  T/C: 96 % of control
[3]
  T/C: 113 % of control
[5]
  T/C: 93 % of control
[6]
  T/C: 76 % of control

## C[C@]12CC[C@@H]3c4ccc(O)cc4CC[C@H]3[C@@H]1C[C@@H](O)[C@@H]2O
dose: 6.25 mg/kg/injection, schedule: Q01DX010 (sc), vehicle: steriod suspending solution
  T/C: 73 % of control and 86 % of control
dose: 25.0 mg/kg/injection, schedule: Q01DX010 (sc), vehicle: steriod suspending solution
  T/C: 69 % of control and 86 % of control
